Measured values published in patent US20230045522A1, “COMPOSITIONS AND METHODS TO MODULATE GLUCOSE HOMEOSTASIS” (The Board of Supervisors of Louisiana State University and …, priority 2019, published 2023).
One block for each compound: values may come before it. Residues, ends and D or L forms follow the SMILES beside them. *: point of attachment. Cbz = O=C(OCc1ccccc1)*

Key:
AMPK = AMPK Thr172 phosphorylation in C2C12 myotubes (immunoblot); assay type: cell-based, murine; details: for increase in phosphorylation of AMPK (phospho-AMPK to total AMPK, fold over 0-time): 1 hour of exposure, PMI-5011 10 μg/ml, AICAR 0.5 mM, metformin 2 mM
Excerpt: Results shown are representative of three independent experiments.

C2C12 myotubes [1] = details: mouse, 10 μg/mL
Experimental: (§1) C2C12 myotubes were incubated with vehicle control (DMSO) or PMI-5011 (10 μg/mL) for 1, 6, or 16 h as indicated. At each time point, (A) the medium and washes were collected at neutral pH, (B) this was followed by collection of surface bound compounds at acidic pH and cell lysates that were separated into soluble (Lysate) and insoluble fractions (Pellet) for analysis of content by UPLC/MS.
(§2) Murine C2C12 (ATCC; #CRL-1771) or rat L6 myoblasts (ATCC, #CRL-1458) were cultured in DMEM, high glucose (25 mM) with 10% FBS, 2 mM glutamine, and antibiotics (100 units/mL penicillin G and 100 μg/mL streptomycin) in a humidified chamber at 37° C. and 5% CO2. To obtain fully differentiated myotubes, the medium was exchanged for DMEM, high glucose with 2% horse serum, glutamine, and antibiotics when the myoblasts reached confluence. The medium was replaced every 48 hours, and the cells were maintained in this medium until fully differentiated, when the medium was exchanged for DMEM, low glucose (5 mM) with 2% horse serum. The myotubes were fully formed by the fourth day post-induction. The experiments analyzing the impact of each experimental material on insulin signaling in the presence of palmitate-induced insulin resistance were performed as described previously.^31 To determine uptake of bioactives into the myotubes, the cells were treated with PMI-5011 (10 μg/mL) for 0, 1, or 16 h prior to medium collection. At each time point, the cells were thoroughly rinsed with D-Hanks, pH 7.4 at 4° C., followed by incubation with D-Hanks buffer, pH 4.0 at 4° C. for 30 min with gentle rocking to remove surface-bound compounds. Cells were then collected in denaturing buffer containing 50 mM Tris-Cl, pH 7.4 with 150 mM NaCl, 1 mM EDTA, 1% Igepal, 0.5% Na-deoxycholate, 0.1% SDS, protease inhibitors (1 μM PMSF, 10 μg/mL aprotinin, 1 μg/mL pepstatin, 5 μg/mL leupeptin). The harvested cells were sonicated on ice and the supernatant and pellet were collected by centrifugation at 13,400×g for 10 min at 4° C.
(§3) UPLC/MS Analysis of Cell Preparations. […]

C2C12 myotubes [2] = experiment: Uptake of bioactives into C2C12 myotubes treated with PMI-5011 (UPLC/MS); details: PMI-5011 10 μg/mL
Experimental: as §1, §2, §3

[3] = Blood glucose in very high fat diet obese insulin-resistant mice, 6 h after gavage; assay type: in vivo, C57BL/6J male mice; details: 6 hour treatment, PMI-5011 500 mg/kg, KOE 500 mg/kg, KOF 100 mg/kg, 2 at 100 or 300 mg/kg, metformin 300 mg/kg
Experimental: (A) C57BL/6J male mice were fed a 60% kcal fat diet for 16 weeks prior to a 6 h treatment with labrasol (vehicle), metformin, PMI-5011, reconstituted PMI-5011 (RE=KOE+KOF), KOE, KOF, synthetic 2. […] Statistical significance is reported as mean−/+standard deviation, compared to (vehicle) control.
(A) Absolute (mg/dL) and (B) percent change in blood glucose levels from baseline for each treatment group six hours after treatment. […] Statistical significance is reported as mean−/+standard deviation, compared to (vehicle) control; ns, not significant; *p<0.05; ** p<0.01; *** p<0.001.
Glucose Homeostasis. […] To address this, C57BL/6J male mice were fed a very high fat diet (60% kcal fat, VHFD) over 16 weeks to induce obesity, prior to testing the ability of PMI-5011 (500 mg/kg), KOE (500 mg/kg), KOF (100 mg/kg), and purified 2 at 100 or 300 mg/kg body weight to alter blood glucose levels (FIG. 4). Metformin (300 mg/kg) was used as a positive control.
Animal Experiments. Male C57BL/6J mice were obtained from Jackson Laboratories (Bar Harbor, Me.). […] The animals were housed singly with a 12 h light-dark cycle at 24° C. […] Body weight was measured weekly. […]
Blood and Tissue Chemistry. Fasting glucose levels were measured in whole blood using a Breeze2 glucometer (Bayer, Leverkusen, Germany). […]

LKB1 = LKB1 Ser428 phosphorylation in skeletal muscle of mice; assay type: in vivo, C57BL/6J mice; details: gavage; compared to vehicle gavaged mice
Experimental: Tubulin or β-actin are included as a loading control.
Male C57BL/6J mice were obtained from Jackson Laboratories (Bar Harbor, Me., USA). All animal experiments were approved by the Rutgers University Animal Care and Use Committee (Protocol #04-023) and were in compliance with the NIH Guide for the Care and Use of Laboratory. The animals were housed singly with a 12 hour light-dark cycle at 24° C. At 4 weeks of age, the mice were placed on a very high fat diet (60 kcal % fat, D12492, Research Diets) for 16 weeks. Body weight was measured weekly. […] Blood glucose levels were assayed at baseline and each hour thereafter up to 6 hours post gavage. The mice were euthanized and tissues were collected for analysis at 6 hours after gavage.
C2C12 myotube lysates were prepared by sonication in 20 mM Tris pH 7.4, 1% Igepal CA630, 5 mM EDTA with 10 mM Na4P2O7, 100 mM NaF, 2 mM Na3VO4, 1 mM PMSF, 10 μg/ml aprotinin, 1 μg/ml pepstatin, and 5 μg/ml leupeptin. The tissue and cell lysates were centrifuged at 14,000×g for 10 minutes at 4° C. Protein concentrations were determined using BCA assays (Thermo Fisher Scientific, Rockford, Ill., USA) and the resulting supernatants (50 μg) were resolved by 10% SDS-PAGE and subjected to immunoblotting. […] Image J software was used for quantification of the western blot band intensities.

SIRT1 = SIRT1 protein expression in skeletal muscle of mice; assay type: in vivo, C57BL/6J mice; details: gavage
Experimental: Male C57BL/6J mice were obtained from Jackson Laboratories (Bar Harbor, Me., USA). […] The animals were housed singly with a 12 hour light-dark cycle at 24° C. At 4 weeks of age, the mice were placed on a very high fat diet (60 kcal % fat, D12492, Research Diets) for 16 weeks. Body weight was measured weekly. […] Blood glucose levels were assayed at baseline and each hour thereafter up to 6 hours post gavage. The mice were euthanized and tissues were collected for analysis at 6 hours after gavage.
The tissue and cell lysates were centrifuged at 14,000×g for 10 minutes at 4° C. Protein concentrations were determined using BCA assays (Thermo Fisher Scientific, Rockford, Ill., USA) and the resulting supernatants (50 μg) were resolved by 10% SDS-PAGE and subjected to immunoblotting. Nitrocellulose membranes were incubated with antibodies for 1-2 hours at RT or overnight at 4° C. Image J software was used for quantification of the western blot band intensities.

Structure (SMILES): CC(C)C[C@@H](C=O)NC(=O)[C@H](CC(C)C)NC(=O)[C@H](CC(C)C)NC(=O)OCc1ccccc1 [MG132] (Cbz-Leu-Leu-Leu-aldehyde)
AMPK phosphorylation at Thr172 under proteasome inhibition (AMPK; MG132 10 μM, up to 4 hours): reduced AMPK phosphorylation

detectability of 2 after 16 hours (C2C12 myotubes [1]): undetectable after 16 hours
Structure (SMILES): COc1ccc(CCC(=O)c2ccc(O)cc2O)cc1 [Compound 2, 2′,4′-dihydroxy-4-methoxydihydrochalcone]

detection in the pellets of treated cells (C2C12 myotubes [2]; insoluble fraction): not detected
detection in the samples from treated cells (C2C12 myotubes [2]; not quantified): detected
Structure (SMILES): O=c1cc(Oc2ccc(O)cc2)oc2cc(O)cc(O)c12 [6-demethoxycapillarisin]

Structure (SMILES): CN(C)C(=N)N=C(N)N [metformin]
blood glucose levels [3]: significantly reduced
increase in phosphorylation of AMPK (phospho-AMPK to total AMPK, fold over 0-time) (AMPK): 1.4 fold
phosphorylation of LKB1 Ser428 in skeletal muscle (LKB1): stimulate LKB1 Ser428 phosphorylation
protein expression of SIRT1 (SIRT1): did not observe an increase

Structure (SMILES): NC(=O)c1ncn([C@@H]2O[C@H](COP(=O)(O)O)[C@@H](O)[C@H]2O)c1N [AICAR, 5-Aminoimidazole-4-carboxamide ribonucleotide]
increase in phosphorylation of AMPK (phospho-AMPK to total AMPK, fold over 0-time) (AMPK): 2.4 fold
